Test results published in PMC5464333, “The binding orientations of structurally-related ligands can differ; A cautionary note” (Neuropharmacology, 2017).
Numbering of substitutions follows the chain as printed. Read-outs that look alike come from different tables or passages of the source.

Columns and labels:
5-HT3 receptor = target: T1, 5-HT3 receptor (Homo sapiens, UniProt P46098); experiment: Affinities from binding tropisetron, granisetron and their analogues at 5-HT3 receptors; settings: for Ki / pKi Mean ± SEM: 5-HT3 receptor; for Fold change: Ki relative to parent scaffold
T1 construct: expressed in transfected cells; host or cells: HEK293, transient, pcDNA3.1
T1 sequence (P46098 24-478): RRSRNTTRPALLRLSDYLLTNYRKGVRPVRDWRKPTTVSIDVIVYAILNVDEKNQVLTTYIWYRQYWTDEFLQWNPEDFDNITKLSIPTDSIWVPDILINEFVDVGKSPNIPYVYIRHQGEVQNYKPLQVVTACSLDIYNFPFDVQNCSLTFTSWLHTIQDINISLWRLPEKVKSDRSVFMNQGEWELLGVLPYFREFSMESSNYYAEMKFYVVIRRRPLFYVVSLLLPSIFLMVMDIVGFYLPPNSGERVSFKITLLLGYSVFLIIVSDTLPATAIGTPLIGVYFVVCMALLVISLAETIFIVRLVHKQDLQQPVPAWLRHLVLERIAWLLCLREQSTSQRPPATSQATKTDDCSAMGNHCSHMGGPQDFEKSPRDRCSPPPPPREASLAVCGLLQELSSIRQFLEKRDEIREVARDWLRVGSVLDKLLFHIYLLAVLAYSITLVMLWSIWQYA
Procedure: (§1) Human 5-HT3A subunit cDNA (Accession: P46098, kindly provided by J. Peters, Dundee University, UK) was cloned into pcDNA3.1 for expression in HEK293 cells. […] Cells were transiently transfected with either of these cDNA constructs using polyethyleneimine (PEI: 25 kDa, linear, powder, Polysciences Inc., Eppelheim, Germany). 30 μl of PEI (1 mg ml^−1), 5 μg cDNA and 1 ml DMEM were incubated for 10 min at room temperature, added drop wise to a 90 mm plate of 70–80% conﬂuent HEK293 cells, and incubated for 2–3 days before use.
(§2) Transfected HEK 293 cells were scraped into 0.6 ml of ice-cold 10 mM HEPES buffer (pH 7.4) and frozen. After thawing, they were washed with HEPES buffer, homogenised by trituration through a 25 gauge (0.5 mm) needle, and 50 μg of cell suspension incubated in 0.5 ml HEPES buffer containing different concentrations of radioligand. […] Equilibrium reactions were incubated on ice for at least 1 h and terminated by vacuum filtration onto Whatman GF/B filters wetted with 0.3% polyethyleneimine, followed by two rapid washes with 2.5 ml ice cold buffer. Radioactivity was measured by scintillation in Ultima Gold XR (Perkin Elmer, Waltham, MA) using a Tri-Carb 2100 TR (PerkinElmer) scintillation counter. Final counts were monitored to ensure that binding never exceeded 10% of the added concentrations of radioligands.

α7 nACh receptor [1] = settings: cited from earlier work
α7 nACh receptor [2] = target: T2, α7 nACh receptor (UniProt P22770+P23979, M226I/T225I)
Procedure: as §1, §2
All data were analysed using GraphPad Prism v5. Individual saturation binding experiments were fitted to the equation below and the fitted values averaged to yield mean ± sem of n independent experiments: y=[…] where Bmax is maximum binding at equilibrium, Kd is the equilibrium dissociation constant and [L] is the free concentration of radioligand. Affinities were compared using 1-way ANOVA and a Dunnett's Post-Test.

[3] = tested on: Untransfected HEK293 cells; experiment: Radioligand binding at untransfected HEK293 cells; set-up: species or system human
Procedure: Human embryonic kidney (HEK) 293 cells were grown on 90 mm round tissue culture plates as monolayers in DMEM/F12 (Gibco, Life Technologies, CA, USA) supplemented with 10% fetal bovine serum (FBS; Sigma Aldrich) at 37 °C in a moist atmosphere containing 5% CO2.

[4] = target: T3, 5-HT3A receptor wild type (Homo sapiens, UniProt P46098); experiment: Saturation radioligand binding, wild type 5-HT3A receptor in HEK293; settings: wild type 5-HT3 receptors
T3 construct: expressed in transfected cells; host or cells: HEK293, transient, pcDNA3.1
T3 sequence (P46098 24-478): T1 sequence (P46098 24-478)
Procedure: as §1, §2
(§3) All data were analysed using GraphPad Prism v5. […]

[5] = target: T4, 5-HT3A receptor I71C mutant (Homo sapiens, UniProt P46098, I66C); experiment: Saturation radioligand binding, 5-HT3A I71C mutant; settings: I71C versus wild type
T4 construct: expressed in transfected cells; host or cells: HEK293, transient, pcDNA3.1
T4 sequence (P46098 24-478 I66C): T1 sequence (P46098 24-478) with I43C
Procedure: (§4) Mutagenesis was performed using the QuikChange method (Agilent Technologies Inc., California, USA). Cysteine residues were substituted for amino acids throughout each of the binding loops A - E (Fig. 1). To facilitate comparisons with previous work, we have used the numbering of the equivalent residues in the mouse 5-HT3A subunit (Q6J1J7).
as §1
(§5) Transfected HEK 293 cells were scraped into 0.6 ml of ice-cold 10 mM HEPES buffer (pH 7.4) and frozen. […] Radioactivity was measured by scintillation in Ultima Gold XR (Perkin Elmer, Waltham, MA) using a Tri-Carb 2100 TR (PerkinElmer) scintillation counter. Final counts were monitored to ensure that binding never exceeded 10% of the added concentrations of radioligands.
as §3

[6] = target: T5, 5-HT3A receptor R92C mutant (Homo sapiens, UniProt P46098, R87C); experiment: Saturation radioligand binding, 5-HT3A R92C mutant; settings: R92C versus wild type
T5 construct: expressed in transfected cells; host or cells: HEK293, transient, pcDNA3.1
T5 sequence (P46098 24-478 R87C): T1 sequence (P46098 24-478) with R64C
Procedure: as §4, §1, §5, §3

[7] = target: T6, 5-HT3A receptor L126C mutant (Homo sapiens, UniProt P46098, L121C); experiment: Saturation radioligand binding, 5-HT3A L126C mutant; settings: L126C versus wild type
T6 construct: expressed in transfected cells; host or cells: HEK293, transient, pcDNA3.1
T6 sequence (P46098 24-478 L121C): T1 sequence (P46098 24-478) with L98C
Procedure: as §4, §1, §5, §3

[8] = target: T7, 5-HT3A receptor P155C mutant (Homo sapiens, UniProt P46098, P150C); experiment: Saturation radioligand binding, 5-HT3A P155C mutant; settings: P155C versus wild type
T7 construct: expressed in transfected cells; host or cells: HEK293, transient, pcDNA3.1
T7 sequence (P46098 24-478 P150C): T1 sequence (P46098 24-478) with P127C
Procedure: as §4, §1, §5, §3

α7 nACh receptor [9] = settings: low potency agonist, cited from earlier work
AChBP = AChBP used for co-crystallisation; ref Hibbs et al., 2009; read-out: affinity; cited from earlier work
α7 nACh receptor [10] = target: T2, α7 nACh receptor; experiment: Competition binding with [3H]epibatidine at α7 nACh receptors; set-up: a chimaera of the chick α7 nACh extracellular domain fused to the 5-HT3 transmembrane/intracellular domains; expressed in transfected cells; host or cells: HEK293 cells, transient transfection (pcDNA3.1, PEI); species or system chick
Procedure: as §1, with “J.” for “J. Peters, Dundee University, UK) was cloned into pcDNA3.1 for expression in HEK293 cells.”, “use. […] Non-specific binding was determined with 30 μM (-)/-nicotine. Equilibrium reactions were incubated on ice for at least 1 h and bound radioligand measured using the same method as described above.” for “use.”

T2 sequence (P22770+P23979 fused P22770:T225I/P22770:M226I): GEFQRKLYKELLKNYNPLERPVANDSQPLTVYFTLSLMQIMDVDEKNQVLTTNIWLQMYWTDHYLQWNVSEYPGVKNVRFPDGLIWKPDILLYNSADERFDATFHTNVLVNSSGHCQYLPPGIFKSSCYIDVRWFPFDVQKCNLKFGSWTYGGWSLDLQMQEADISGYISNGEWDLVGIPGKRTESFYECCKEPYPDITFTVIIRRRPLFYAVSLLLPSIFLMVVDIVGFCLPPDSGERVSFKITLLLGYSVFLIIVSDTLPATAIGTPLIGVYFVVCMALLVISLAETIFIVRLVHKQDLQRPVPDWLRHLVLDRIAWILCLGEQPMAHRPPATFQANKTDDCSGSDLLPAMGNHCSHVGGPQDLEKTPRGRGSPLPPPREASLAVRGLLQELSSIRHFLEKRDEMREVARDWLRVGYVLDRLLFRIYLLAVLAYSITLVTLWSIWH

COc1ccc2[nH]cc(C(=O)O[C@H]3C[C@H]4CC[C@@H](C3)N4C)c2c1 [Compound 1, (1R,3r,5S)-8-methyl-8-azabicyclo[3.2.1]octan-3-yl 5-methoxy-1H-indole-3-carboxylate]
Ki (5-HT3 receptor): 95.5 nM
pKi Mean ± SEM (5-HT3 receptor): 7.02 ± 0.03
Fold change (5-HT3 receptor): 133 fold

COc1ccc2c(C(=O)O[C@H]3C[C@H]4CC[C@@H](C3)N4C)c[nH]c2c1 [Compound 2, (1R,3r,5S)-8-methyl-8-azabicyclo[3.2.1]octan-3-yl 6-methoxy-1H-indole-3-carboxylate]
Ki (5-HT3 receptor): 182 nM
pKi Mean ± SEM (5-HT3 receptor): 6.74 ± 0.04
Fold change (5-HT3 receptor): 253 fold

COc1cccc2c(C(=O)O[C@H]3C[C@H]4CC[C@@H](C3)N4C)c[nH]c12 [Compound 3, (1R,3r,5S)-8-methyl-8-azabicyclo[3.2.1]octan-3-yl 7-methoxy-1H-indole-3-carboxylate]
Ki (5-HT3 receptor): 30.2 nM
pKi Mean ± SEM (5-HT3 receptor): 7.52 ± 0.12
Fold change (5-HT3 receptor): 42 fold

O=C(O[C@H]1C[C@H]2CC[C@@H](C1)N2Cc1ccccc1)c1c[nH]c2ccccc12 [Compound 4, (1R,3r,5S)-8-benzyl-8-azabicyclo[3.2.1]octan-3-yl 1H-indole-3-carboxylate]
Ki (5-HT3 receptor): 1440 nM
pKi Mean ± SEM (5-HT3 receptor): 5.84 ± 0.20
Fold change (5-HT3 receptor): 2007 fold

COc1cccc2c(C(=O)N[C@H]3C[C@H]4CCC[C@@H](C3)N4C)nn(C)c12 [Compound 7, 7-methoxy-1-methyl-N-((1R,3r,5S)-9-methyl-9-azabicyclo[3.3.1]nonan-3-yl)-1H-indazole-3-carboxamide]
Ki (5-HT3 receptor): 120 nM
pKi Mean ± SEM (5-HT3 receptor): 6.92 ± 0.24
Fold change (5-HT3 receptor): 255 fold

CN1C2CCC1CC(NC(=O)c1nn(C)c3ccccc13)C2 (centres unmarked) [LY-278,584]
binding (α7 nACh receptor [1]; α7 nACh receptor, ref Macor et al., 2001): cannot be detected

Clc1ccc(C2CC3CCC2N3)cn1 (centres unmarked) [[^3H]epibatidine]
Kd (α7 nACh receptor [2]): 8.81 ± 0.13 nM

CN1C2CCCC1CC(NC(=O)c1nn(C)c3ccccc13)C2 (centres unmarked) [[^3H]granisetron]
saturable binding [3]: no saturable binding

[3H]C([3H])([3H])N1C2CCC1CC(OC(=O)c1c[nH]c3ccccc13)C2 (centres unmarked) [[^3H]tropisetron]
saturation binding (α7 nACh receptor [2]): could not be detected
saturable binding [3]: no saturable binding

CN1[C@@H]2CC[C@H]1C[C@@H](OC(=O)c1c[nH]c3ccccc13)C2 [tropisetron, Tropisetron]
Non-specific binding, of total [4]: 30.3 ± 1.8%
change in affinity [5]: 1.9 fold
reduction in affinity [6]: 2.5 fold
change in affinity [7]: 2.5 fold
decrease in affinity [8]: 5 fold
saturation binding (α7 nACh receptor [2]; α7 nACh receptors): undetectable
Ki (α7 nACh receptor [1]; α7 nACh receptors, ref Macor et al. (2001)): 6.9 nM
EC50 (α7 nACh receptor [9]; ref Macor et al., 2001): 1300 nM
EC50 (α7 nACh receptor [9]; ref Papke et al., 2005): 600 nM
Kd (AChBP): 500 nM
difference in affinity at 5-HT3 versus α7 nACh receptors (α7 nACh receptor [10]; 5-HT3 versus α7 nACh): > 1000 fold
Ki (α7 nACh receptor [10]; competition with [3H]epibatidine): 1580 ± 840 nM
